Experimental data taken from patent US6406679B1, “Use of HL-60-related lectins in drug delivery and detection of lectin-expressing cells” (Incyte Pharmaceuticals, Inc., priority 1992, dated 2002).
Several values for one entry are separate records, joined by “and”; a condition that tells them apart may be missing. Identical values can stand only once.

Experiments:
[1] = tested on: Jurkat T-cells on inflamed rat brain vascular endothelium; assay: Binding to inflamed brain endothelium sections; format: cell-based, human; conditions: 250 μg/ml lectin
rat lymphocytes = assay: Binding to sections of lymphoid organs (lymph nodes and Peyer's patch); format: cell-based; conditions: control level binding very low, result cannot be relied on
Description: Sections of lymphoid organs (lymph nodes and Peyer's patch) were tested as above.

BALB/c and C57B/6 mice = assay: Experimental autoimmune myasthenia gravis (EAMG): clinical signs of neuromuscular dysfunction; format: in vivo, mouse
Source text: Experimental autoimmune myasthenia gravis (EAMG) is an antibody-mediated autoimmune disease responding to acetylcholine receptors (AChR). This condition in mice is a recognized model for studying the effects of the autoimmune response on neuromuscular transmission (Levi, G. et al., Eur. J. Immunol. (1983) 13:500-507; Lefvert, A. K. et al., Scand. J. Immunol. (1978) 8:525; Lefvert, A. K. et al., J. Neuro. Immunol. (1985) 9:41; Lefvert, A. K. et al., Eur. J. Immunol. (1982) 12:790). It appears that myasthenia gravis is mediated by T helper cells, which produce acetylcholine receptor antibodies. The disease is induced in mice by injection of acetylcholine receptor. The acetylcholine receptor is obtained from the electric organ of the ray Torpedo marmorata and purified by affinity chromatography on Naja naja siamensis neurotoxin crosslinked to Sephadex.
Young adult female BALB/c and C57B/6 mice (2-4 months of age) were used because they differ in EAMG susceptibility. The mice were injected subcutaneously with 10 μg of purified acetylcholine receptor, in Freund's complete adjuvant without and with the 14 kD-β-gal lectin.
Blood was obtained after 3 days and after 1, 2, 3 and 4 weeks. To follow the development of the disease, the mice were observed daily for signs of neuromuscular dysfunction and after 10 days subjected to forced exercise using repetitive grasping, swimming and inverted hang. These exercises were repeated after warming under a heat lamp at 35° C. for 5 min.

[2] = Antibodies specific for the lectin in sera of treated rats (ELISA); format: in vivo, rat
established T-cell lines = assay: Lectin added to established T-cell lines; format: cell-based, rat; conditions: lectin added in vitro
Source text: In a follow-up experiment, T-cell lines were selected from the draining lymph nodes.

SJL/J mice = assay: EAE relapse murine model; format: in vivo, mouse; conditions: 50 μg i.v. days 13 and 15, 100 μg i.v. daily days 18-24, FIG. 13
Source text: In mice, symptoms of EAE can be made to occur in cyclical fashion by boosting the animals with antigen following each cycle, and each cycle becomes more severe until death ultimately occurs. This is a useful model in which to determine therapeutic efficacy, since it closely mimics both the chronic disease relapses and the acute demyelination associated with multiple sclerosis. In this experiment, 20 female SJL/J mice were immunized with lyophilized spinal cord extract dissolved in PBS plus CFA on days 0, 7 and 21. Ten mice were injected with recombinant lectin, and ten mice were given buffer only. The lectin-treated mice received 50 μg lectin on days 13 and 15 intravenously in the tail vein, and an additional 100 μg i.v. daily from day 18 through day 24. Mice were followed until death or sacrifice at day 42.
The results in FIG. 13 are mean clinical scores for control and lectin-treated mice.

Lewis rats [3] = assay: Rat heart transplantation, lectin combined with cyclosporin; format: in vivo; conditions: Group A: Cyclosporin 0, Lectin 2.5 mg/kg/day
Source text: The heart transplant model of paragraph A was used. Five groups of 5 Lewis rats received hearts from Brown Norway rats and were given the following drugs by group, as shown in Table 8:
Cyclosporin i.p. was started the day of the graft and continued daily. Recombinant lectin was started two days prior to transplant and continued daily.

Lewis rats [4] = assay: Skin allografts (Brown Norway skin on Lewis rats); format: in vivo, rat; design: key to Hair Growth / Hair Growth, Mean + SD column: whether or not (+ or −) hair growth was restored in the tissue; whether or not (+ or −) hair growth was restored in the tissue
Description: The work in this report was done in the laboratory of Drs. Arthur Vandenbark and Halina Offner at the Oregon VA Medical Center. Brown Norway rat skin was transplanted onto the back of Lewis rats. Identical grafts were done on both sides of each animal's back and the results of each side (separated by commas) were shown for each parameter in Tables 9 and 10. […] A 250 μg/animal dose of lectin was administered i.v. daily on days 2-17.
The protocols for the studies reported in Tables 9 and 10 differed only in that the lectin was delivered for four additional days up to day 21 (see Table 10).

rats = assay: Skin allograft, single grafts (FIG. 14); format: in vivo, rat; conditions: 5 mg/kg recombinant lectin
Description: In this experiment, 5 mg/kg recombinant lectin was used on rats bearing single grafts and the day of graft rejection was noted.

Human blood cells = assay: Staining of lectin-pretreated human blood cells with fluoresceinated antibodies (histogram analyses); format: cell-based
Source text: Human blood cells were pretreated with the inventive HL-60 lectin and then stained with fluoresceinated antibody having several different specificities. Control cells were not pretreated with lectin. […] However, the effect of lectin treatment on M1 and M3 macrophages was significant.

[5] = Day 2 to Day 17, individual animals, first-listed graft side, listed as rIML-1
[6] = Day 2 to Day 17, individual animals, second-listed graft side, listed as rIML-1
[7] = Day 2 to Day 21, individual animals, first-listed graft side, listed as rIML-1
[8] = Day 2 to Day 21, individual animals, second-listed graft side, listed as rIML-1
[9] = HLA-DR, lectin-pretreated cells
[10] = NK(L-A), lectin-pretreated cells

**Q.** For “Lectin: Soluble 14 kD β-galactoside-binding HL-60/placenta lectin of FIG. 1 (SEQ ID NO:2), prepared recombinantly in E. coli”, which “Binding to Inflamed Brain Endothelium” value [1] is on record?
**A.** did not bind

**Q.** And the “Effect on binding of rat lymphocytes to lymphoid organ sections” value (rat lymphocytes)?
**A.** no noticeable effect

**Q.** What about the “Mice Showing Clinical Signs of Neuromuscular Dysfunction (%)” value (“Mice Showing Clinical Signs … (%)” below) (BALB/c and C57B/6 mice; BALB/c, Receptor + 2.5 μg Lectin s.c.) of the same substance?
**A.** 18%

**Q.** What about the “Mice Showing Clinical Signs … (%)” value (BALB/c and C57B/6 mice; BALB/c, Receptor + 12 μg Lectin s.c.) of the same substance?
**A.** 4%

**Q.** What about the “Mice Showing Clinical Signs … (%)” value (BALB/c and C57B/6 mice; C57B/6, Receptor + 2.5 μg Lectin s.c.) of the same substance?
**A.** 59%

**Q.** What about the “Mice Showing Clinical Signs … (%)” value (BALB/c and C57B/6 mice; C57B/6, Receptor + 12 μg Lectin s.c.) of the same substance?
**A.** 11%

**Q.** What about the neuromuscular deterioration (BALB/c and C57B/6 mice; both strains, higher lectin dose levels) of the same substance?
**A.** markedly slowed

**Q.** And the “antibodies specific for the lectin in sera of treated rats” value [2]?
**A.** did not contain

**Q.** What about the “effect on established T-cell lines” value (established T-cell lines) of the same substance?
**A.** no inhibitory effect

**Q.** And the “mean clinical scores, first cycle” value (SJL/J mice)?
**A.** improved clinical scores

**Q.** What about the “survival and clinical scores, second cycle” value (SJL/J mice) of the same substance?
**A.** improved survival and clinical scores

**Q.** What about the “Survivors on Day 16” value (Lewis rats [3]) of the same substance?
**A.** 0/5

**Q.** What about the “delay of rejection of the grafts” value (Lewis rats [4]; 250 μg/animal i.v. daily days 2-17, versus control) of the same substance?
**A.** 7 days

**Q.** What about the “Rejection (on day), Mean ± SD” value (Lewis rats [4]; Day 2 to Day 17) of the same substance?
**A.** 17 ± 2 days

**Q.** What about the “Degeneration (on day)” value (Lewis rats [4]; [5]) of the same substance?
**A.** 15 day and 11, day and 14 day

**Q.** What about the “Hair Growth” value (Lewis rats [4]; [5]) of the same substance?
**A.** +, + (3×) and − and +

**Q.** And the “Rejection (on day)” value (Lewis rats [4]; [5])?
**A.** 16 day and 13, day and 16, day and 18, day (2×)

**Q.** And the “Degeneration (on day)” value (Lewis rats [4]; [6])?
**A.** 16 day (2×) and 13 day

**Q.** What about the “Hair Growth” value (Lewis rats [4]; [6]) of the same substance?
**A.** +, + (3×) and +

**Q.** And the “Rejection (on day)” value (Lewis rats [4]; [6])?
**A.** 17 day and 15 day and 16 day and 18 day (2×)

**Q.** And the Histology (Lewis rats [4]; Day 2 to Day 17, individual animals, listed as rIML-1)?
**A.** 0

**Q.** And the “Degeneration (on day), Mean + SD” value (Lewis rats [4]; Day 2 to Day 21)?
**A.** 17 ± 2 days

**Q.** What about the “Hair Growth, Mean + SD column” value (Lewis rats [4]; Day 2 to Day 21) of the same substance?
**A.** +

**Q.** And the “Rejection (on day), Mean + SD” value (Lewis rats [4]; Day 2 to Day 21)?
**A.** 19 ± 2 days

**Q.** And the “Degeneration (on day)” value (Lewis rats [4]; [7])?
**A.** 15 day (3×) and 18, 18 day and 17 day and 18 day

**Q.** What about the “Hair Growth” value (Lewis rats [4]; [7]) of the same substance?
**A.** +, + (5×) and −

**Q.** And the “Rejection (on day)” value (Lewis rats [4]; [7])?
**A.** 18 day (2×) and 19, 19 day and 21, 21 day and 17 day and 19 day

**Q.** And the “Degeneration (on day)” value (Lewis rats [4]; [8])?
**A.** 19 day (3×) and 18 day and 18, 18 day and 11 day

**Q.** And the “Hair Growth” value (Lewis rats [4]; [8])?
**A.** +, + (5×) and +

**Q.** What about the “Rejection (on day)” value (Lewis rats [4]; [8]) of the same substance?
**A.** 23 day and 19, 19 day and 21, 21 day and 13 day and 20 day and 22 day

**Q.** What about the “rejection of the skin allograft” value (rats) of the same substance?
**A.** considerably delayed

**Q.** And the “+FL1” value (Human blood cells; CD3+, lectin-pretreated cells)?
**A.** 458

**Q.** What about the “+mode” value (Human blood cells; CD3+, lectin-pretreated cells) of the same substance?
**A.** 416

**Q.** And the percent (Human blood cells; CD3+, lectin-pretreated cells)?
**A.** 77.8%

**Q.** What about the “+FL1” value (Human blood cells; CD4+, lectin-pretreated cells) of the same substance?
**A.** 181.5

**Q.** What about the “+mode” value (Human blood cells; CD4+, lectin-pretreated cells) of the same substance?
**A.** 151

**Q.** And the percent (Human blood cells; CD4+, lectin-pretreated cells)?
**A.** 46.4%

**Q.** What about the “+FL1” value (Human blood cells; [9]) of the same substance?
**A.** 614

**Q.** What about the “+mode” value (Human blood cells; [9]) of the same substance?
**A.** 432

**Q.** What about the percent (Human blood cells; [9]) of the same substance?
**A.** 13.3%

**Q.** What about the “+FL1” value (Human blood cells; M1, lectin-pretreated cells) of the same substance?
**A.** 403

**Q.** What about the “+mode” value (Human blood cells; M1, lectin-pretreated cells) of the same substance?
**A.** 387

**Q.** What about the percent (Human blood cells; M1, lectin-pretreated cells) of the same substance?
**A.** 46.1%

**Q.** And the “reduction of the percent of positive cells” value (Human blood cells; M1 macrophages, lectin vs control)?
**A.** 33%

**Q.** What about the “+FL1” value (Human blood cells; M3, lectin-pretreated cells) of the same substance?
**A.** 549

**Q.** And the “+mode” value (Human blood cells; M3, lectin-pretreated cells)?
**A.** 517

**Q.** What about the percent (Human blood cells; M3, lectin-pretreated cells) of the same substance?
**A.** 45.1%

**Q.** And the “reduction of the percent of positive cells” value (Human blood cells; M3 macrophages, lectin vs control)?
**A.** 26%

**Q.** And the “+FL1” value (Human blood cells; [10])?
**A.** 106

**Q.** What about the “+mode” value (Human blood cells; [10]) of the same substance?
**A.** 94.7

**Q.** And the percent (Human blood cells; [10])?
**A.** 10.8%

**Q.** And the “changes for CD3+, CD4+, NK(L-A) or HLA-DR cell markers” value (Human blood cells; lectin vs control)?
**A.** No significant changes
